From ChEMBL document CHEMBL4387701, “H2depda: An acyclic adjuvant potentiates meropenem activity in vitro against metallo-β-lactamase-producing enterobacterales” (Eur J Med Chem, 2019)
Converted amounts (≈) assume the structure as drawn. The source made the active and inactive calls. The rule behind the calls is not given here.

Experiments:
[1] = target: T1, Metallo-beta-lactamase NDM-4 (Escherichia coli) (UniProt H6WZS9); assay: Inhibition of NDM4 in Escherichia coli isolate 3 assessed as potentiation of meropenem-induced bactericidal activity at 4 times MIC incubated for 24 hrs followed by replating on agar plates for 16 to 18 hrs and measured up to 24 hrs by time kill assay
T1 sequence (whole entry): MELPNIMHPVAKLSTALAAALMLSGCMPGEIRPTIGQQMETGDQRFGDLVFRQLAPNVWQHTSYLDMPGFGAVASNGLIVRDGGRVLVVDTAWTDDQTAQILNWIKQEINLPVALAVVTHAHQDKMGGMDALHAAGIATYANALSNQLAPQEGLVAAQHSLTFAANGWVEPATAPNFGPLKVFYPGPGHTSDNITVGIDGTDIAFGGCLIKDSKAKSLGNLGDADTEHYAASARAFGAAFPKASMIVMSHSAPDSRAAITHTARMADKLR

[2] = test system: Klebsiella pneumoniae; assay: Effect on growth of Klebsiella pneumoniae isolate 13 after 24 hrs by broth microdilution method; format: organism-based
[3] = target: T1, Metallo-beta-lactamase NDM-4 (Escherichia coli); assay: Inhibition of NDM4 in Escherichia coli ATCC 25922 assessed as potentiation of meropenem-induced antibacterial activity by measuring zone of inhibition by agar disk diffusion method
[4] = test system: Escherichia coli ATCC 25922; assay: Inhibition of IMP-4 in Escherichia coli ATCC 25922 assessed as potentiation of meropenem-induced antibacterial activity by measuring zone of inhibition by agar disk diffusion method
[5] = test system: Klebsiella pneumoniae; assay: Inhibition of IMP4 in Klebsiella pneumoniae isolate 13 assessed as potentiation of meropenem-induced antibacterial activity by measuring meropenem MIC after 24 hrs by broth microdilution method (reference value: 320 ug/ml)
[6] = test system: Enterobacter cloacae; assay: Inhibition of NDM1 in Enterobacter cloacae isolate 5 assessed as potentiation of meropenem-induced antibacterial activity by measuring meropenem MIC after 24 hrs by broth microdilution assay (reference value: 640 ug/ml)
[7] = test system: Escherichia coli; assay: Effect on growth of Escherichia coli isolate 2 after 24 hrs by broth microdilution assay; format: organism-based
[8] = test system: Escherichia coli; assay: Inhibition of IMP4 in Escherichia coli isolate 14 assessed as potentiation of meropenem-induced antibacterial activity by measuring meropenem MIC after 24 hrs by broth microdilution method (reference value: 16 ug/ml)
[9] = test system: HeLa; assay: Cytotoxicity against human HeLa cells assessed as inhibition of growth after 24 hrs by CCK8 assay; format: cell-based
[10] = test system: Escherichia coli; assay: Inhibition of NDM1 in Escherichia coli isolate 9 assessed as potentiation of meropenem-induced antibacterial activity by measuring meropenem MIC after 24 hrs by broth microdilution assay
[11] = target: T1, Metallo-beta-lactamase NDM-4 (Escherichia coli); assay: Inhibition of Escherichia coli isolate 3 NDM4 assessed as potentiation of meropenem-induced antibacterial activity by measuring reduction in meropenem MIC after 24 hrs by broth microdilution method relative to meropenem alone
[12] = test system: Klebsiella pneumoniae; assay: Effect on growth of Klebsiella pneumoniae isolate 17 after 24 hrs by broth microdilution method; format: organism-based
[13] = target: T1, Metallo-beta-lactamase NDM-4 (Escherichia coli); assay: Inhibition of Escherichia coli NDM4 assessed as potentiation of meropenem-induced antibacterial activity by measuring reduction in bacterial growth at 64 ug/mL after 24 hrs by broth microdilution method relative to control
[14] = test system: Citrobacter freundii; assay: Inhibition of NDM1 in Citrobacter freundii clinical isolate 7 assessed as potentiation of meropenem-induced antibacterial activity by measuring meropenem MIC after 24 hrs by broth microdilution assay
[15] = test system: Enterobacter cloacae; assay: Effect on growth of Enterobacter cloacae isolate 5 after 24 hrs by broth microdilution assay; format: organism-based
[16] = test system: Escherichia coli; assay: Effect on growth of Escherichia coli isolate 11 after 24 hrs by broth microdilution method; format: organism-based
[17] = test system: Escherichia coli; assay: Effect on growth of NDM4-positive Escherichia coli assessed as bacterial growth at 64 ug/mL after 24 hrs by broth microdilution method relative to control; format: organism-based
[18] = test system: Proteus mirabilis; assay: Inhibition of IMP4 in Proteus mirabilis isolate 19 assessed as potentiation of meropenem-induced antibacterial activity by measuring meropenem MIC after 24 hrs by broth microdilution method (reference value: 320 ug/ml)
[19] = test system: Escherichia coli; assay: Inhibition of NDM1 in Escherichia coli isolate 8 assessed as potentiation of meropenem-induced antibacterial activity by measuring meropenem MIC after 24 hrs by broth microdilution assay (reference value: 320 ug/ml)
[20] = test system: Escherichia coli; assay: Inhibition of IMP4 in Escherichia coli isolate 18 assessed as potentiation of meropenem-induced antibacterial activity by measuring meropenem MIC after 24 hrs by broth microdilution method (reference value: 16 ug/ml)
[21] = test system: Escherichia coli; assay: Effect on growth of Escherichia coli isolate 9 after 24 hrs by broth microdilution assay; format: organism-based
[22] = Inhibition of Stenotrophomonas maltophilia NDM1 expressed in Escherichia coli BL21 (DE3) expressing measured after 15 minutes at interval of 60 secs
[23] = test system: Escherichia coli; assay: Effect on growth of Escherichia coli isolate 18 after 24 hrs by broth microdilution method; format: organism-based
[24] = test system: Klebsiella pneumoniae; assay: Effect on growth of Klebsiella pneumoniae isolate 12 after 24 hrs by broth microdilution method; format: organism-based
[25] = test system: Citrobacter freundii; assay: Effect on growth of Citrobacter freundii isolate 7 after 24 hrs by broth microdilution assay; format: organism-based
[26] = test system: Escherichia coli ATCC 25922; assay: Inhibition of IMP-4 in Escherichia coli ATCC 25922 assessed as potentiation of meropenem-induced antibacterial activity by measuring diameter of inhibition zone measured after 18 hrs by agar disk diffusion method
[27] = target: T1, Metallo-beta-lactamase NDM-4 (Escherichia coli); assay: Inhibition of NDM4 in Escherichia coli isolate 3 assessed as potentiation of meropenem-induced bactericidal activity by measuring bacterial killing in late exponential phase at 64 ug/ml incubated for 24 hrs followed by replating on agar plates for 16 to 18 hrs and measured up to 24 hrs by time kill assay; details: TDE = time-dependent effect
[28] = test system: Enterobacter cloacae; assay: Inhibition of NDM1 in Enterobacter cloacae isolate 6 assessed as potentiation of meropenem-induced antibacterial activity by measuring meropenem MIC after 24 hrs by broth microdilution assay (reference value: 320 ug/ml)
[29] = test system: Klebsiella pneumoniae; assay: Inhibition of IMP4 in Klebsiella pneumoniae isolate 12 assessed as potentiation of meropenem-induced antibacterial activity by measuring meropenem MIC after 24 hrs by broth microdilution method (reference value: 16 ug/ml)
[30] = test system: Enterobacter cloacae; assay: Effect on growth of Enterobacter cloacae isolate 15 after 24 hrs by broth microdilution method; format: organism-based
[31] = test system: Escherichia coli; assay: Inhibition of IMP4 in Escherichia coli isolate 11 assessed as potentiation of meropenem-induced antibacterial activity by measuring meropenem MIC after 24 hrs by broth microdilution method (reference value: 32 ug/ml)
[32] = test system: Enterobacter cloacae; assay: Inhibition of IMP4 in Enterobacter cloacae isolate 15 assessed as potentiation of meropenem-induced antibacterial activity by measuring meropenem MIC after 24 hrs by broth microdilution method (reference value: 32 ug/ml)
[33] = Hemolytic activity in sheep RBC at 1000 ug/ml measured after 1 hr relative to control; format: ADME, cell-based, Ovis aries, Erythrocyte; details: sheep red blood cells (erythrocytes), read-out: Activity
[34] = test system: Klebsiella pneumoniae; assay: Inhibition of IMP4 in Klebsiella pneumoniae isolate 10 assessed as potentiation of meropenem-induced antibacterial activity by measuring meropenem MIC after 24 hrs by broth microdilution method (reference value: 64 ug/ml)

Row | Structure (SMILES) | inhibition [1] | MIC [2] [µg/mL] | inhibition zone (IZ) [3] [mm] | inhibition zone (IZ) [4] [mm] | MIC [5] [µg/mL] | MIC [6] [µg/mL] | MIC [7] [µg/mL] | MIC [8] [µg/mL] | IC50 [9] [µg/mL] | MIC [10] [µg/mL] | fold change (FC) [11] | MIC [12] [µg/mL] | inhibition [13] | MIC [14] [µg/mL] | MIC [15] [µg/mL] | MIC [16] [µg/mL] | Activity [17] [%] | MIC [18] [µg/mL] | MIC [19] [µg/mL] | MIC [20] [µg/mL] | other results
1 | COc1ccc(CN(CCN(Cc2ccc(OC)cc2)Cc2cccc(C(=O)O)n2)Cc2cccc(C(=O)O)n2)cc1 | Active | 32 (≈ 56.1 µM) | 21.4 | 15.9 | 4 | 0.5 | 64 (≈ 112 µM) | 4 | > 1000 | 0.125 | 41000 | 32 (≈ 56.1 µM) | Active | 1 | 64 (≈ 112 µM) | 64 (≈ 112 µM) | 95 | 2 | 0.0625 | 2 | MIC [21]: 32 µg/mL (≈ 56.1 µM); IC50 [22]: 40 nM; MIC [23]: 32 µg/mL (≈ 56.1 µM); MIC [24]: 32 µg/mL (≈ 56.1 µM); MIC [25]: 32 µg/mL (≈ 56.1 µM); inhibition zone (IZ) [26]: 2 to 5 mm; inhibition [27]: Tde; MIC [28]: 2 µg/mL; MIC [29]: 1 µg/mL; MIC [30]: 32 µg/mL (≈ 56.1 µM); MIC [31]: 4 µg/mL; MIC [32]: 0.5 µg/mL; hemolysis at 1 h, 1000 ug/ml [33]: 2.94%; MIC [34]: 1 µg/mL
2 | O=C(O)c1cccc(CNCCNCc2cccc(C(=O)O)n2)n1 | Active | 32 (≈ 96.9 µM) | 20.2 | 18.3 | 4 | 0.5 | 32 (≈ 96.9 µM) | 4 | > 1000 | 0.25 | 41000 | 32 (≈ 96.9 µM) | Active | 1 | 64 (≈ 194 µM) | 64 (≈ 194 µM) | 95 | 2 | 0.0625 | 2 | MIC [21]: 32 µg/mL (≈ 96.9 µM); IC50 [22]: 170 nM; MIC [23]: 32 µg/mL (≈ 96.9 µM); MIC [24]: 64 µg/mL (≈ 194 µM); MIC [25]: 32 µg/mL (≈ 96.9 µM); inhibition zone (IZ) [26]: 2 to 5 mm; inhibition [27]: Tde; MIC [28]: 2 µg/mL; MIC [29]: 0.5 µg/mL; MIC [30]: 32 µg/mL (≈ 96.9 µM); MIC [31]: 4 µg/mL; MIC [32]: 0.5 µg/mL; hemolysis at 1 h, 1000 ug/ml [33]: 0.1%; MIC [34]: 0.5 µg/mL
